Where a name gives a salt, the structure may show the parent alone.
Tests used:
[1] = two-photon excitation and emission spectrum of the antibiotics (femtosecond laser); assay type: physicochemical
Source text: 3A illustrates an excitation spectrum of hydrochloride moxifloxacin and gatifloxacin. Here, an X axis represents a wavelength (nm) of a femtosecond laser light source used in the experiment, and a degree (a.u.) of two-photon excited fluorescence (TPF) at 700 nm to 800 nm which is a measuring range of a femtosecond laser wavelength is illustrated as a Y axis. Through the graph, it can be seen that hydrochloride moxifloxacin and gatifloxacin may represent fluorescent signals in the light source having a range of 700 nm to 800 nm which is a near-infrared wavelength. Further, in the case where the wavelength of the light source is 700 nm as shown in the intensity of the excited fluorescence graph of the Y axis, it can be seen that a fluorescent signal stronger than other wavelengths is shown. FIG. 3B illustrates an emission spectrum representing a fluorescence expression degree of each antibiotic when the femtosecond laser is applied to hydrochloride moxifloxacin and gatifloxacin. The X axis represents a wavelength (nm) and the Y axis represents the degree (a.u.) of the TPF. In the graph, in the hydrochloride moxifloxacin and the gatifloxacin, it can be seen that the fluorescent signals having wavelengths of 450 nm to 550 nm are frequently expressed and the wavelength of about 520 nm is expressed most strongly.

[2] = test system: corneal cells of the mouse; assay: multi-photon fluorescence of corneal cells after dropping the antibiotic in the eye; assay type: in vivo
Protocol: Blab/c female mice after five or six weeks, gatifloxacin, hydrochloride moxifloxacin, and a multi-photon microscope including a biaxial scanner (a galvano scanner of x axis and a galvano scanner of y axis) to be used by a point scanning method were prepared.
In this Experimental Example, a two-photon microscope using a femtosecond laser as a light source was used and the multi-photon fluorescence was equally measured under the following condition throughout an experimental process.
Excitation wavelength: 780 nm for vigamox (moxifloxacin)
In order to compare fluorescence expression of hydrochloride moxifloxacin with auto-fluorescence expression of the corneal cells of the mouse, the corneal cells of the mouse which are not applied with hydrochloride moxifloxacin were first photographed.
The Blab/c mouse to be used in the experiment was anesthetized and then fixed to an eye holder for photographing the eye, and photographed by the two-photon microscope. Laser power was set as 30.8 mW, and in this case, the intensity of auto-fluorescence of the photographed mouse cornea was recorded.
In order to measure the fluorescence expression degree of the mouse cornea by vigamox (hydrochloride moxifloxacin), hydrochloride moxifloxacin of 10 μl was dropped in a left eye of the mouse and an eyelid was closed for 30 seconds. […]

[3] = single-photon fluorescence, ultraviolet-ray area; cited from earlier work
pseudomonas = assay: multi-photon fluorescence in bacteria; assay type: cell-based
Protocol: (§1) Bacteria (pseudomonas and staphylococcus) used in the experiment, hydrochloride moxifloxacin, and a biaxial scanner (a galvano scanner of x axis and a galvano scanner of y axis) to be used by a point scanning method were prepared.
(§2) In this Experimental Example, a two-photon microscope using a femtosecond laser as a light source was used, and the multi-photon fluorescence was equally measured under the following condition throughout an experimental process.
(§3) Excitation wavelength: 780 nm for vigamox(moxifloxacin)
(§4) The bacteria were incubated under the following condition.
pseudomonas-nutrient broth (nutrient medium)
(§5) 1. A bacteria stock was put in a medium of 3 mL and cultured after overnight incubation (37° C. and 200 rpm).
(§6) 2. Here, 0.03 mL of the cultured bacteria stock was taken and put in a fresh medium of 3 mL, and then cultured (37° C. and 200 rpm) up to OD600=1.5.
3. […]
(§7) In order to compare fluorescence expression of hydrochloride moxifloxacin with auto-fluorescence expression of bacteria, fluorescence expression of bacteria (pseudomonas and staphylococcus) which are not applied with hydrochloride moxifloxacin was first photographed and intensity of the auto-fluorescence expression was recorded. Subsequently, the hydrochloride moxifloxacin was administered to the medium and then the intensity of the fluorescence expression after the incubation time was measured.

staphylococcus = assay: multi-photon fluorescence in bacteria; assay type: cell-based
Protocol: as §1, §2, §3, §4
staphylococcus-lysogeny broth (LB medium)
as §5, §6
3. […]
as §7

SMILES	emission wavelength expressed most strongly ([1]; two-photon emission spectrum)	light source wavelength with fluorescent signal stronger than other wavelengths ([1]; two-photon excitation spectrum, 700 nm to 800 nm measured)	fluorescence intensity in corneal endothelium layer versus auto-fluorescence ([2]; corneal endothelium layer, FIGS. 5E, 6E vs 4E)	intensity of fluorescence expression in cornea versus auto-fluorescence ([2]; laser power 30.8 mW, same as auto-fluorescence)	excited light expressing the fluoroquinolone antibiotics (wavelength) [3]	difference in signal intensity after versus before administering (pseudomonas)	fluorescence signal intensity after administering (pseudomonas; FIG. 18, before administering 9.5334 a.u.)	difference in signal intensity after versus before administering (staphylococcus)	fluorescence signal intensity after administering (staphylococcus; FIG. 18, before administering 10.4277 a.u.)
COc1c(N2CCNC(C)C2)c(F)cc2c(=O)c(C(=O)O)cn(C3CC3)c12 (stereo not drawn) [gatifloxacin]	about 520 nm	700 nm	higher than the fluorescence intensity of the auto-fluorescence expression	much larger than that of the auto-fluorescence expression	292 nm				
COc1c(N2C[C@@H]3CCCN[C@@H]3C2)c(F)cc2c(=O)c(C(=O)O)cn(C3CC3)c12 [hydrochloride moxifloxacin, moxifloxacin]						about 10 times	101.2196 a.u.	10 times	110.3189 a.u.
